Results from US20240043435A1, “TYK-2 INHIBITOR” (BEIGENE, LTD., priority 2020, published 2024).
pIC50: −log10 of the molar value.

Key:
[1] = molecular target: T1, TYK2-JH2 (aa 575-869, in-house) protein (Homo sapiens, UniProt P29597); assay: TYK2-JH2 biochemical assay (HTRF probe displacement); format: binding; conditions: Biochemical assay; read-out: TYK2-JH2 IC50
T1 construct: TYK2-JH2 (aa 575-869, in-house) protein; made in house
Description: Assay A: TYK2-JH2 Biochemical Assay
Compounds disclosed herein were tested for blocking of TYK2-JH2 (aa 575-869, in-house) protein with its probe in an assay based on Homogeneous Time Resolved Fluorescence. Compound dilution is done according to the following protocol: (1) Prepare 500× compounds solution in DMSO from 500 uM by 5-fold dilution, total 10 doses were included; (2) Prepare 10× compounds solution in an assay buffer containing 20 mM HEPES, pH 7.5, 10 mM MgCl2, 0.005% BSA, 2 mM DTT, 0.015% Brij-35 by transferring 1 μl serial 500× stock solution into 49 μl assay buffer. […] of 0.2 nM recombinant TYK2-JH2 protein was pre-incubated with 1 μl of 10× serial dilution of compounds at room temperature for 0.5 hour. […] The HTRF signals (ex337 nm, em620 nm/665 nm) were read on BMG PHERAstar FS instrument. The inhibition percentage of TYK2 interaction with its probe in presence of increasing concentrations of compounds was calculated based on the ratio of fluorescence at 615 nm to that at 665 nm. The IC50 for each compound was derived from fitting the data to the four-parameter logistic equation by Dotmatics.

[2] = system: JAK2, TYK2/p-STAT4 (Tyr693) activated by IL-12 in NK-92 cell line; assay: IL-12-JAK2, TYK2/p-STAT4 (Tyr693) inhibition IC50 cellular assay; format: cell-based; conditions: for pIC50: NK92, Cellular assay, read-out: pSTAT4/IL-12 IC50
Description: Assay C: IL-12-JAK2, TYK2/p-STAT4 (Tyr693) Inhibition IC50 Cellular Assay
To evaluate the inhibition effect of compounds disclosed herein on JAK2, TYK2/p-STAT4 (Tyr693) activated by IL-12 in NK-92 cell line, NK-92 cells were collected and washed 3 times by DPBS and resuspended in MEM-α (GIBCO, Cat #12561056) with 10% FBS (Gibco, Cat #10099, Lot #1891605), without IL-2 (R&D systems, Cat #202-IL), starved overnight. Cells were collected and resuspended in 1640 medium (phenol red free, Gibco, Cat #11835-030) with 0.1% BSA, and 12.5 μl/5×10^4/well cell suspension were seeded to the 96-well plate (Corning, Cat #3799). Then cells were treated with compounds diluted in 0.2% DMSO 1640 medium, at 37° C., 1 h. Dilution is done according to the following protocol: (1) make 500× compounds solution in DMSO from 5 mM by 4-fold dilution, total 8 doses were included; (3) make 2× compounds solution in assay medium by transferring 0.5 μl serial 500× stock solution into 125 μl assay medium; (4) 15 μl of 2× serial solution is added to cells and incubate at 37° C. for 1 h, the final compound conc. is 10000, 2500, 625, 156.25, 39, 9.8, 2.4 and 0.61 nM, respectively. After 1 h, cells were treated with 2.5 μl medium containing IL-12 at 37° C. (R&D systems, Cat #219-IL-005, final conc. 40 ng/ml), 30 min. Following cells were lysed with 7.5 μl lysis buffer at RT, shaking on shaker for 1 h. 10 μL of cell lysate were transferred to a PE 384-well Proxiplate detection plate, and 5 μL of pre-mixed Alphascreen beads were added to each well. Covered the plate with a plate sealer, span 1000 rpm for 1 min, mix, Incubated overnight at room temperature. Read on BMG PheraStar with Alphascreen protocol. IC 50 values were calculated by fitting dependent data to the four-parameter logistic model using dotmatics software. The assay was performed by using AlphaLISA SureFire Ultra p-STAT4 (Tyr693) Assay Kit—High Volume (PE, Cat #ALSU-PST4-A-HV).

pSTAT5/GM-CSF = pSTAT5/GM-CSF cellular assay (JAK2 selectivity); format: cell-based; conditions: for Selectivity fold (TYK2/JAK2): pSTAT5/GM-CSF IC50 over pSTAT4/IL-12 IC50

T1 sequence (P29597 575-869): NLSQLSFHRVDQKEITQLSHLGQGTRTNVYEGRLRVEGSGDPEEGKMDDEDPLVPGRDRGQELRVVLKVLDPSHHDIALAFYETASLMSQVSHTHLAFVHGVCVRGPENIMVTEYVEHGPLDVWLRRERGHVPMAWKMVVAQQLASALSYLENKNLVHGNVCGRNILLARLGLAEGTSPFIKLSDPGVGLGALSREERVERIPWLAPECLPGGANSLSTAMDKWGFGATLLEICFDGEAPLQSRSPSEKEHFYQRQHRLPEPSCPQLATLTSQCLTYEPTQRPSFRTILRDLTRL

| SMILES | pIC50 [1] | other results |
| --- | --- | --- |
| CC(=O)Nc1cc(Nc2cccc(S(C)(=O)=O)c2)c(-c2ccc(N3CCOCC3)cn2)cn1 [Example B11, N-(4′-((3-(methylsulfonyl)phenyl)amino)-5-morpholino-[2,3′-bipyridin]-6′-yl)acetamide] | 10.72 | – |
| CC(=O)Nc1cc(Nc2cc(OCC3COCCO3)cc(S(C)(=O)=O)n2)c(-c2ccc3c(n2)OC(C)(C)CO3)cn1 (stereo not drawn) [Example Q27, N-(4-((4-((1,4-dioxan-2-yl)methoxy)-6-(methylsulfonyl)pyridin-2-yl)amino)-5-(3,3-dimethyl-2,3-dihydro-[1,4]dioxino[2,3-b]pyridin-6-yl)pyridin-2-yl)acetamide] | 10.48 | – |
| CC(=O)Nc1cc(Nc2cc(C)cc(S(C)(=O)=O)n2)c(-c2cc(C(C)(C)O)ccn2)cn1 [Example B10, N-(4-(2-hydroxypropan-2-yl)-4′-((4-methyl-6-(methylsulfonyl)pyridin-2-yl)amino)-[2,3′-bipyridin]-6′-yl)acetamide] | 10.35 | – |
| CC(=O)Nc1cc(Nc2nc(S(C)(=O)=O)ccc2OC(C)C)c(-c2ccn(C)n2)cn1 [Example J49, N-(4-((3-isopropoxy-6-(methylsulfonyl)pyridin-2-yl)amino)-5-(1-methyl-1H-pyrazol-3-yl)pyridin-2-yl)acetamide] | 9.89 | – |
| CC(=O)Nc1cc(Nc2cc(OC(C)C)cc(S(C)(=O)=O)n2)c(-c2ccc(F)cn2)cn1 [Example F18, N-(5-fluoro-4′-((4-isopropoxy-6-(methylsulfonyl)pyridin-2-yl)amino)-[2,3′-bipyridin]-6′-yl)acetamide] | 10.28 | – |
| CCn1ccc(-c2cnc(NC(C)=O)cc2Nc2cc(C#N)cc(S(C)(=O)=O)c2)n1 [Example M10, N-(4-((3-cyano-5-(methylsulfonyl)phenyl)amino)-5-(1-ethyl-1H-pyrazol-3-yl)pyridin-2-yl)acetamide] | 10.00 | – |
| COCCOc1cc(Nc2cc(NC(C)=O)ncc2-c2ccc(C(F)(F)F)cn2)cc(S(C)(=O)=O)c1 [Example F8, N-(4′-((3-(2-methoxyethoxy)-5-(methylsulfonyl)phenyl)amino)-5-(trifluoromethyl)-[2,3′-bipyridin]-6′-yl)acetamide] | 10.06 | – |
| COC(C)c1cc(Nc2cc(NC(C)=O)ncc2-c2ccc(N3C[C@@H](C)O[C@@H](C)C3)cn2)nc(S(C)(=O)=O)c1 (single isomer, unassigned) [Example C19, N-(5-((cis)-2,6-dimethylmorpholino)-4′-((4-((R or S)-1-methoxyethyl)-6-(methylsulfonyl)pyridin-2-yl)amino)-[2,3′-bipyridin]-6′-yl)acetamide] | 10.64 | – |
| CC(=O)Nc1cc(Nc2cc(N3CCC4(CC4)C3)cc(S(C)(=O)=O)n2)c(-c2ccc3c(n2)OCC(C)(C)O3)cn1 [Example Q97, N-(5-(2,2-dimethyl-2,3-dihydro-[1,4]dioxino[2,3-b]pyridin-6-yl)-4-((6-(methylsulfonyl)-4-(5-azaspiro[2.4]heptan-5-yl)pyridin-2-yl)amino)pyridin-2-yl)acetamide] | – | pIC50 [2]: 8.48; pIC50 (pSTAT5/GM-CSF): < 5.00; Selectivity fold (TYK2/JAK2) (pSTAT5/GM-CSF): >3039 fold |
| CC(=O)Nc1cc(Nc2cc(-c3ccc(C#N)nc3)cc(S(C)(=O)=O)n2)c(-c2ccc3c(n2)OCC(C)(C)O3)cn1 [Example Q108, N-(4-((6-cyano-6′-(methylsulfonyl)-[3,4′-bipyridin]-2′-yl)amino)-5-(2,2-dimethyl-2,3-dihydro-[1,4]dioxino[2,3-b]pyridin-6-yl)pyridin-2-yl)acetamide] | – | pIC50 [2]: 8.93; pIC50 (pSTAT5/GM-CSF): < 5.00; Selectivity fold (TYK2/JAK2) (pSTAT5/GM-CSF): >8474 fold |
| CC(=O)Nc1cc(Nc2cc(-c3nccnc3C)cc(S(C)(=O)=O)n2)c(-c2ccc3c(n2)OCC(C)(C)O3)cn1 [Example Q110, N-(5-(2,2-dimethyl-2,3-dihydro-[1,4]dioxino[2,3-b]pyridin-6-yl)-4-((4-(3-methylpyrazin-2-yl)-6-(methylsulfonyl)pyridin-2-yl)amino)pyridin-2-yl)acetamide] | – | pIC50 [2]: 8.97; pIC50 (pSTAT5/GM-CSF): < 5.00; Selectivity fold (TYK2/JAK2) (pSTAT5/GM-CSF): >9259 fold |
| CCn1ccc(-c2cnc(NC(C)=O)cc2Nc2cc(C(F)(F)F)cc(S(C)(=O)=O)c2)n1 [Example M13, N-(5-(1-ethyl-1H-pyrazol-3-yl)-4-((3-(methylsulfonyl)-5-(trifluoromethyl)phenyl)amino)pyridin-2-yl)acetamide] | 9.96 | – |
| CC(=O)Nc1cc(Nc2cc(C(F)(F)F)cc(S(C)(=O)=O)c2)c(-c2ccn([C@@H]3CCOC3)n2)cn1 [Example M32, (R)-N-(4-((3-(methylsulfonyl)-5-(trifluoromethyl)phenyl)amino)-5-(1-(tetrahydrofuran-3-yl)-1H-pyrazol-3-yl)pyridin-2-yl)acetamide] | 10.13 | – |
| CC(=O)Nc1cc(Nc2nc(S(C)(=O)=O)ccc2C2CCOCC2)c(-c2ccc3c(n2)OCC(C)(C)O3)cn1 [Example Q90, N-(5-(2,2-dimethyl-2,3-dihydro-[1,4]dioxino[2,3-b]pyridin-6-yl)-4-((6-(methylsulfonyl)-3-(tetrahydro-2H-pyran-4-yl)pyridin-2-yl)amino)pyridin-2-yl)acetamide] | – | pIC50 [2]: 7.36; pIC50 (pSTAT5/GM-CSF): < 5.00; Selectivity fold (TYK2/JAK2) (pSTAT5/GM-CSF): >227 fold |
| CC(=O)Nc1cc(Nc2cc(N3CC4CC4C3)cc(S(C)(=O)=O)n2)c(-c2ccc3c(n2)OCC(C)(C)O3)cn1 (stereo not drawn) [Example Q106, N-(4-((4-(3-azabicyclo[3.1.0]hexan-3-yl)-6-(methylsulfonyl)pyridin-2-yl)amino)-5-(2,2-dimethyl-2,3-dihydro-[1,4]dioxino[2,3-b]pyridin-6-yl)pyridin-2-yl)acetamide] | 10.82 | – |
| CC(=O)Nc1cc(Nc2cc(C3CCOC3)cc(S(C)(=O)=O)n2)c(-c2ccc3c(n2)OCC(C)(C)O3)cn1 (stereo not drawn) [Example Q86, N-(5-(2,2-dimethyl-2,3-dihydro-[1,4]dioxino[2,3-b]pyridin-6-yl)-4-((6-(methylsulfonyl)-4-(tetrahydrofuran-3-yl)pyridin-2-yl)amino)pyridin-2-yl)acetamde] | 10.51 | – |
| CC(=O)Nc1cc(Nc2cc(N3CC[C@H](OCCO)C3)cc(S(C)(=O)=O)n2)c(-c2ccc3c(n2)OCC(C)(C)O3)cn1 [Example Q61, (S)-N-(5-(2,2-dimethyl-2,3-dihydro-[1,4]dioxino[2,3-b]pyridin-6-yl)-4-((4-(3-(2-hydroxyethoxy)pyrrolidin-1-yl)-6-(methylsulfonyl)pyridin-2-yl)amino)pyridin-2-yl)acetamide] | 10.66 | – |
| CC(=O)Nc1cc(Nc2cc(N3CC(C)(O)C3)cc(S(C)(=O)=O)n2)c(-c2ccc3c(n2)OCC(C)(C)O3)cn1 [Example Q56, N-(5-(2,2-dimethyl-2,3-dihydro-[1,4]dioxino[2,3-b]pyridin-6-yl)-4-((4-(3-hydroxy-3-methylazetidin-1-yl)-6-(methylsulfonyl)pyridin-2-yl)amino)pyrid-in-2-yl)acetamide] | 10.51 | – |
| CC(=O)Nc1cc(Nc2cc(OCC3CC3)cc(S(C)(=O)=O)c2)c(-c2ccc(C(F)(F)F)cn2)cn1 [Example F6, N-(4′-((3-(cyclopropylmethoxy)-5-(methylsulfonyl)phenyl)amino)-5-(trifluoromethyl)-[2,3′-bipyridin]-6′-yl)acetamide] | 9.27 | – |
| COCCOc1cc(Nc2cc(NC(C)=O)ncc2-c2ccccn2)nc(S(C)(=O)=O)c1 [Example B6, N-(4′-((4-(2-methoxyethoxy)-6-(methylsulfonyl)pyridin-2-yl)amino)-[2,3′-bipyridin]-6′-yl)acetamide] | – | Selectivity fold (TYK2/JAK2) ([2]; Cellular assay, pSTAT5/GM-CSF IC50 vs pSTAT4/IL-12 IC50): >8264 fold; pIC50 [2]: 8.92; pIC50 (pSTAT5/GM-CSF): < 5.00 |
